Data set [1] deals with MV4-11. Further details: method as in PMID 30427680, PMID 34959180, PMID 34694800, PMID 36332882, PMID 38655686. The settings on record: reported FLT3 PROTACs, Figure 1; cited from earlier work.
Data set [2] concerns MOLM-13. Further details: method as in PMID 30427680, PMID 34959180, PMID 34694800, PMID 36332882, PMID 38655686. The settings on record: reported FLT3 PROTACs, Figure 1; cited from earlier work.
The subject of data set [3] is MOLM-14. Also on record: method as in PMID 36518702. The following applies: reported FLT3 PROTAC, Figure 1; cited from earlier work.
The subject of data set [4] is FLT3-ITD. Put plainly: KINOMEscan binding assay. As to the method: Binding to FLT3-ITD was determined using the KINOMEscan^TM assay (Eurofins DiscoverX Corporation, San Diego, CA, USA)
Kinase-tagged T7 phage strains were prepared in an E. coli host derived from the BL21 strain. E. coli were grown to log-phase and infected with T7 phage and incubated with shaking at 32 °C until lysis. The lysates were centrifuged and filtered to remove cell debris. The remaining kinases were produced in HEK-293 cells and subsequently tagged with DNA for qPCR detection. […] The liganded beads were blocked with excess biotin and washed with blocking buffer (SeaBlock (Pierce), 1% BSA, 0.05% Tween 20, 1 mM DTT) to remove unbound ligand and to reduce non-specific binding. […] The compounds were then diluted directly into the assays such that the final concentration of DMSO was 0.9%. All reactions performed in polypropylene 384-well plate. Each was a final volume of 0.02 mL. […] The kinase concentration in the eluates was measured by qPCR.

Data set [5] can be described thus: Non-enzymatic stability under cellular assay conditions (HPLC). The data set is classed as physicochemical. The following applies: compound remaining, assay medium DMEM, 37 °C. As to the method: An important aspect in the development of PROTACs is testing chemical stability. On the one hand, we tested all PROTACs produced for their stability under cellular assay conditions. For this purpose, 10 µM solutions of the PROTACs and reference inhibitor were incubated for 72 h at 37 °C with the assay medium DMEM. The remaining amount of the compounds was determined by HPLC after 6, 12, 24, 48 and 72 h. The results of the stability studies are shown in Table S2 (Supplementary Information).
The developed compounds were diluted in the assay media consisting of a mixture of DMEM (50%), DMSO (10%) and acetonitrile (40%) at pH 7.4 and incubated at 37 °C for 72 h. The quantity of the compounds was measured after 6, 12, 24, 48, and 72 h by HPLC using an XTerra RP18 column ([…], 3.9 mm × 100 mm) from the manufacturer Waters (Milford, MA, USA) and two LC-10AD pumps, an SPD-M10AVP PDA detector, and an SIL-HT autosampler, all from the manufacturer Shimadzu (Kyoto, Japan).

Data set [6] concerns the target T1, FLT3-ITD (Homo sapiens, UniProt P36888, INS600HVDFREYEYD).
T1 sequence (P36888 with tags, fused parts or gaps INS600HVDFREYEYD): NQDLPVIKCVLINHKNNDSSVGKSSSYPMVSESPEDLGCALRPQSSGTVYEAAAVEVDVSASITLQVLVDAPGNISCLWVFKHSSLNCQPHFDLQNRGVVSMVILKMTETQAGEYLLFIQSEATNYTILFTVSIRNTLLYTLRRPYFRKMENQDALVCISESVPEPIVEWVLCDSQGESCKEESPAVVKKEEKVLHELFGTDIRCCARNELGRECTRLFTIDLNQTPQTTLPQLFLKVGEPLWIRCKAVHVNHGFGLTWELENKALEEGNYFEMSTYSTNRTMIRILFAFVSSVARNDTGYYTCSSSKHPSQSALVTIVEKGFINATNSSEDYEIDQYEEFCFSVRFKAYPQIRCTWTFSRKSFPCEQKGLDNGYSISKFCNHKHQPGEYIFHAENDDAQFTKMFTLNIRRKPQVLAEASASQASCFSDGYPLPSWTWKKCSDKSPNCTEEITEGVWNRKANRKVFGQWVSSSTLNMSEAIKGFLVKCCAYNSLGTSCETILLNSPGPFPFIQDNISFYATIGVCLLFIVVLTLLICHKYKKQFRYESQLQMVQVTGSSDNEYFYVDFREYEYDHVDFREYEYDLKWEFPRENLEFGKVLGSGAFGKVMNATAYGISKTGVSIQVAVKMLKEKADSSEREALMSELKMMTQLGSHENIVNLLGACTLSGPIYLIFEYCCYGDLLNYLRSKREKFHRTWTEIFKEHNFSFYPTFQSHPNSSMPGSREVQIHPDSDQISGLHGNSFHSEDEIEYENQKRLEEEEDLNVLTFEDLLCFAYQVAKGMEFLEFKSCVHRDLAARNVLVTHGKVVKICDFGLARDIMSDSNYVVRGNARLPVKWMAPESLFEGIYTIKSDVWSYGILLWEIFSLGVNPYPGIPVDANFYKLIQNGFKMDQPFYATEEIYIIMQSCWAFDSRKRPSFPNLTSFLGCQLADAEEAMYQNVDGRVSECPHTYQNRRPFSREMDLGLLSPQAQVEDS
Put plainly: FLT3-ITD degradation, immunoblot in MV4-11 cells. On the technique in general: A western blot detects proteins with antibodies after separation by electrophoresis.

In data set [7] the target is T2, MAPK14 (Homo sapiens, UniProt Q16539). Kind of data set: MAPK14 degradation, immunoblot in leukemia cells. The data set is classed as cell-based. Further details: endogenous in cells; host or cells: K562, RS4-11, MV4-11, MOLM-13 (A17); MV4-11 (A20). The following applies: K562, RS4-11, MV4-11 and MOLM-13 cells; 50 nM MA191, 24 h.
T2 sequence (Q16539 2-360 limits assumed): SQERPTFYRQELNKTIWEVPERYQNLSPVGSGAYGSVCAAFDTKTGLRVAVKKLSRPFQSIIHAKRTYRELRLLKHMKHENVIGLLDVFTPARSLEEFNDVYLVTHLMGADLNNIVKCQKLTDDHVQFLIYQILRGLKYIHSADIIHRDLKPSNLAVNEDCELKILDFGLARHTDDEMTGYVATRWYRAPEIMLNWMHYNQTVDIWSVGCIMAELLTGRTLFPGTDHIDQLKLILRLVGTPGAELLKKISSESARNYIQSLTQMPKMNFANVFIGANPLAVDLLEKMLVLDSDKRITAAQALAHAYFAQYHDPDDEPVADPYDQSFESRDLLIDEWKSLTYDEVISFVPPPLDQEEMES
The target in data set [8] is T2, MAPK14. Put plainly: Phosphorylation of MAPK14, immunoblot in MV4-11 cells. The data set is classed as cell-based. Further details: endogenous in cells; host or cells: K562, RS4-11, MV4-11, MOLM-13 (A17); MV4-11 (A20).
The target in data set [9] is T1, FLT3-ITD. Kind of data set: Phosphorylation of FLT3-ITD, immunoblot in MV4-11 cells. The data set is classed as cell-based. Also on record: We treated MV4-11 cells with the synthesized degraders of FLT3; endogenous in cells; host or cells: MV4-11. The source says:
We aimed to delineate if the FLT3 inhibitor part of MA191 acts as a MAPK14 inhibitor in MV4-11 cells. We used the phosphorylation of FLT3-ITD and the phosphorylation of MAPK14 as markers for their activation. […] This finding is consistent with the detection of MAPK14 in the kinase selectivity profiling approach (Figure 3; MAPK14 is termed p38α therein).
(§1) Figure 7 Targeting MAPK14 augments anti-leukemic effects of an inhibition of FLT3-ITD. (a) The graphs show the mRNA levels of MAPK14 in leukemia cells and normal blood cells. […] All immunoblots show data from at least two independent repetitions. (c) Model for how inhibition of various signaling pathways affects AML cells (red, cytoplasm, blue, nucleus).

The subject of data set [10] is HL-60. Also on record: method as in PMID 36332882. The following applies: reported FLT3 PROTAC, Figure 1; cited from earlier work.
The target in data set [11] is CSNK1D (Homo sapiens, UniProt P48730). Kind of data set: NanoBRET CELLinib128. A general note: Bioluminescence resonance energy transfer reports proximity on the nanometre scale.
Sequence of CSNK1D (P48730 whole entry): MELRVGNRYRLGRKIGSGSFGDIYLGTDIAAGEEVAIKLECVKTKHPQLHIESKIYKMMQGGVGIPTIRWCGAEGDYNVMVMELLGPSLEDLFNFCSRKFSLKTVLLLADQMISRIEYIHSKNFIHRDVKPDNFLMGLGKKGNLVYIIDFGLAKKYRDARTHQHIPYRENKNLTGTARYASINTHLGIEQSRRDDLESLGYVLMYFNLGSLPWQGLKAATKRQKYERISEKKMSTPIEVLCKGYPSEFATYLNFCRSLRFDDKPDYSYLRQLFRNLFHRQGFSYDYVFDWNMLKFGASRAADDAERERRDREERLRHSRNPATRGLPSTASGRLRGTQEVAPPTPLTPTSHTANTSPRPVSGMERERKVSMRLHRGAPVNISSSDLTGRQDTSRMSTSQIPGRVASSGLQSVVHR
Data set [12] concerns caspase-3. Put plainly: Caspase-3 cleavage, immunoblot in MV4-11 cells. The data set is classed as cell-based, human.
Source text: The usefulness of a combined inhibition of FLT3-ITD and MAPK14 through depletion may also be effective against leukemia stem cells that require cytokines signaling through MAPK14 [48]. Further studies are necessary to test this idea.
as §1

The text below walks through data of publication PMC13210772, “Dual FLT3/MAPK14 Proteolysis-Targeting Chimera (PROTAC) Induces Potent Acute Myeloid Leukemia Cell Death” (Pharmaceuticals, 2026).

In general, IC50 refers to the concentration at which inhibition is half-maximal. For `Cc1c(NC(=O)CN2CCN(CC3CCN(c4ccc5c(c4)C(=O)N(C4CCC(=O)NC4=O)C5=O)CC3)CC2)c[nH]c1/C=C1\C(=O)Nc2ccc(F)cc21` (stereo not drawn) [A20], the values for the IC50 in data set [1] and in data set [2] were 39.9 ± 3.4 nM and 170 ± 3.4 nM, respectively.
Turning to `CCc1nc(C(N)=O)c(Nc2ccc(N3CCC(N4CCN(CC5CCN(C(=O)CCOCCOCCNc6cccc7c6C(=O)N(C6CCC(=O)NC6=O)C7=O)CC5)CC4)CC3)c(OC)c2)nc1NC1CCOCC1` (stereo not drawn) [CRBN(FLT3)-8], the concentration for half-maximal inhibition (IC50) was 0.9 nM in data set [1] and 2.8 nM in data set [3].
For the compound `CCc1nc(C(N)=O)c(Nc2ccc(N3CCC(N4CCN(C(=O)COc5cccc6c5CN(C5CCC(=O)NC5=O)C6=O)CC4)CC3)c(OC)c2)nc1NC1CCOCC1` (stereo not drawn) [LWY713], the IC50 in data set [1] was 1.5 nM.
As for `Cc1ncsc1-c1ccc([C@H](C)NC(=O)[C@@H]2C[C@@H](O)CN2C(=O)[C@@H](NC(=O)CCCCCNC(=O)c2cc(Oc3ccc(NC(=O)Nc4cc(C(C)(C)C)on4)cc3)ccn2)C(C)(C)C)cc1` [MA78, 4-(4-(3-(5-(tert-Butyl)isoxazol-3-yl)ureido)phenoxy)-N-(6-(((S)-1-((2S,4R)-4-hydroxy-2-(((S)-1-(4-(4-methylthiazol-5-yl)phenyl)ethyl)carbamoyl)pyrrolidin-1-yl)-3,3-dimethyl-1-oxobutan-2-yl)amino)-6-oxohexyl)picolinamide], the “% FLT3-ITD Binding at 1 µM” value in data set [4] was found to be 89 ± 2%. Also, the “0 h - %” value in data set [5] (0 h) worked out at 100%. The compound also displayed a 6 h- % in [5] (6 h) of 99.5%. Besides, the 12 h- % in data set [5] (12 h) worked out at 99.5%. In addition, the 24 h- % in data set [5] (24 h) is given as 99.9%. The compound also displayed a 48 h- % in data set [5] (48 h) of 100.6%. The compound also had a 72 h- % in data set [5] (72 h) of 101.0%. Also, the inhibition at 0.05 µM in data set [6] (MV4-11, 24 h, read-out: % FLT3-ITD Degradation at 50 nM) was found to be 80%.
With `Cc1ncsc1-c1ccc([C@H](C)NC(=O)[C@H]2C[C@H](O)CN2C(=O)[C@@H](NC(=O)[C@H]2CC[C@H](C(=O)N3CCN(CCNC(=O)c4cc(Oc5ccc(NC(=O)Nc6cc(C(C)(C)C)on6)cc5)ccn4)CC3)CC2)C(C)(C)C)cc1` [MA225, 4-(4-(3-(5-(tert-Butyl)isoxazol-3-yl)ureido)phenoxy)-N-(2-(4-(trans-4-(((S)-1-((2R,4S)-4-hydroxy-2-(((S)-1-(4-(4-methylthiazol-5-yl)phenyl)ethyl)carbamoyl)pyrrolidin-1-yl)-3,3-dimethyl-1-oxobutan-2-yl)carbamoyl)cyclohexanecarbonyl)piperazin-1-yl)ethyl)picolinamide], in [4], the “% FLT3-ITD Binding at 1 µM” value was 97 ± 2%. Further, in data set [6] (MV4-11 cells, 50 nM, 24 h), the “% FLT3-ITD Degradation at 50 nM” value is “No effect”; the “FLT3-ITD degradation” value is “did not reduce the levels of FLT3-ITD and MAPK14”. For the same compound, the “MAPK14 protein level, immunoblot” value in [7] is “did not reduce the levels of FLT3-ITD and MAPK14”. In addition, the “phosphorylated MAPK14 (p-MAPK14)” value in [8] was “weak inhibition of phosphorylated MAPK14”. For the same compound, the “phosphorylation of FLT3-ITD” value in data set [9] was “inhibited the phosphorylation of FLT3-ITD”.
Turning to `Cc1ncsc1-c1ccc(CNC(=O)[C@@H]2C[C@@H](O)CN2C(=O)[C@@H](NC(=O)COCCOCCNC(=O)c2c(C)[nH]c(/C=C3\C(=O)Nc4ccc(F)cc43)c2C)C(C)(C)C)cc1` [PROTAC5], the IC50 in [10] was 2900 ± 1500 nM.
Turning to `Cc1ncsc1-c1ccc(CNC(=O)[C@@H]2C[C@@H](O)CN2C(=O)[C@@H](NC(=O)CCOCCOCCOc2ccc3c(c2)sc2nc(-c4ccc(NC(=O)Nc5cc(C(C)(C)C)on5)cc4)cn23)C(C)(C)C)cc1` [Quizaritinib-based PROTAC], the IC50 in data set [1] was 0.6 ± 0.08 nM.
One may read the EC50 as the concentration giving half of the maximal effect. A lower EC50 goes with higher potency in that assay. Consider `CN[C@@H]1C[C@H]2O[C@@](C)([C@@H]1OC)n1c3ccccc3c3c4c(c5c6ccccc6n2c5c31)C(=O)NC4` [Staurosporine], for which the EC50 in [11] was 10400 nM.
For the compound `CCc1nc(C(N)=O)c(Nc2ccc(N3CCN(CCC4CCN(CC(=O)N[C@H](C(=O)N5C[C@H](O)C[C@H]5C(=O)N[C@@H](C)c5ccc(-c6scnc6C)cc5)C(C)(C)C)CC4)CC3)c(OC)c2)nc1NC1CCOCC1` [Z29], the figures for the IC50 in [1] and in data set [2] were 5.5 ± 0.2 nM and 8 ± 0.2 nM, respectively.
Consider `CNC(=O)c1cc(Cl)ccn1` [compound 1], for which the IC50 was 18.7 ± 2.1 nM in [1] and 10.1 ± 1 nM in data set [2].
For the compound `Nc1ccc(O)cc1` [compound 2], the half-inhibitory concentration (IC50) in [1] is 9.2 ± 1 nM; in data set [2] it was 9.5 ± 0.7 nM.
As to `Cc1ccc(-n2nc(C(C)(C)C)cc2NC(=O)Nc2ccc(OCCN3CCOCC3)c3ccccc23)cc1` [doramapimod, reference compound], the caspase-3 cleavage result in [12] is “did not induce caspase-3 cleavage”. Moreover, the “phosphorylation of FLT3-ITD” value in data set [9] was “did not affect FLT3-ITD and its activity”.
